Measurements as given in patent US10280164B2, “Pyrazolopyridone compounds and uses thereof” (Incyte Corporation, priority 2016, dated 2019).

Biological target: HPK1 (Homo sapiens (Human), UniProt Q92918)
Assay: HPK1 Kinase Binding Assay (LanthaScreen Eu-Anti GST antibody / tracer 222)
Details: active HPK1 (SignalChem M23-11G), tracer 222, one hour incubation at 25° C.
Procedure: A stock solution of 1 mM test compound was prepared in DMSO. The compound plate was prepared by 3-fold and 11-point serial dilutions. 0.1 μL of the compound in DMSO was transferred from the compound plate to the white 384 well polystyrene plates. The assay buffer contained 50 mM HEPES, pH 7.5, 0.01% Tween-20, 5 mM MgCl2, 0.01% BSA, and 5 mM DTT. 5 μl of 4 nM active HPK1 (SignalChem M23-11G) prepared in the buffer was added to the plate. The enzyme concentration given was based on the given stock concentration reported by the vender. 5 μl of 18 nM tracer 222 (ThermoFisher PV6121) and 4 nM LanthaScreen Eu-Anti GST antibody (ThermoFisher PV5595) were added. After one hour incubation at 25° C., the plates were read on a PHERAstar FS plate reader (BMG Labtech). Ki values were determined.

Chain of HPK1 (Q92918 1-346): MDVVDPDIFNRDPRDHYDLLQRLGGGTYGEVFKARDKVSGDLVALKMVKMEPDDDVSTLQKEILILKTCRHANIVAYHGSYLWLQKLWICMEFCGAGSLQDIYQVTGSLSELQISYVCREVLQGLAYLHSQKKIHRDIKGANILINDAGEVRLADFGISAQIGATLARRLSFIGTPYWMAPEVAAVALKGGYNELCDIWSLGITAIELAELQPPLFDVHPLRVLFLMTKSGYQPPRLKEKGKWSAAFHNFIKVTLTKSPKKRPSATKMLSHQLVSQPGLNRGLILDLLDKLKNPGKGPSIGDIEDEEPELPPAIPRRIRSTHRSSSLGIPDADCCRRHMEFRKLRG

Ki, ≤ 100 nM:
CN1CCN(c2ccc(-c3n[nH]c4cc(=O)n(-c5cccc6c5CCNC6)cc34)cc2)CC1 [Example 6, 3-[4-(4-Methylpiperazin-1-yl)phenyl]-5-(1,2,3,4-tetrahydroisoquinolin-5-yl)-1,5-dihydro-6H-pyrazolo[4,3-c]pyridin-6-one]
CN1CCN(c2ccc(-c3n[nH]c4cc(=O)n(-c5ccccc5F)cc34)cc2)CC1 [Example 2, 5-(2-Fluorophenyl)-3-[4-(4-methylpiperazin-1-yl)phenyl]-1,5-dihydro-6H-pyrazolo[4,3-c]pyridin-6-one]
COc1cccc(F)c1-n1cc2c(-c3ccc(N4CCN(C)CC4)cc3)n[nH]c2cc1=O [Example 5, 5-(2-Fluoro-6-methoxyphenyl)-3-[4-(4-methylpiperazin-1-yl)phenyl]-1,5-dihydro-6H-pyrazolo[4,3-c]pyridin-6-one]
CC(c1ccccc1)n1cc2c(-c3ccc(N4CCN(C)CC4)cc3)n[nH]c2cc1=O (stereo not shown) [Example 14, 3-[4-(4-Methylpiperazin-1-yl)phenyl]-5-(1-phenylethyl)-1,5-dihydro-6H-pyrazolo[4,3-c]pyridin-6-one]
Cc1ccccc1-n1cc2c(-c3ccc(N4CCN(C)CC4)cc3)n[nH]c2cc1=O [Example 3, 3-[4-(4-Methylpiperazin-1-yl)phenyl]-5-(o-tolyl)-1,5-dihydro-6H-pyrazolo[4,3-c]pyridin-6-one]
COc1ccccc1-n1cc2c(-c3ccc(N4CCN(C)CC4)cc3)n[nH]c2cc1=O [Example 4, 5-(2-Methoxyphenyl)-3-[4-(4-methylpiperazin-1-yl)phenyl]-1,5-dihydro-6H-pyrazolo[4,3-c]pyridin-6-one]
CC(c1ccccc1C(F)(F)F)n1cc2c(-c3ccc(N4CCN(C)CC4)cc3)n[nH]c2cc1=O (stereo not shown) [Example 13, 3-[4-(4-Methylpiperazin-1-yl)phenyl]-5-{1-[2-(trifluoromethyl)phenyl]ethyl}-1,5-dihydro-6H-pyrazolo[4,3-c]pyridin-6-one]
CN1CCN(c2ccc(-c3n[nH]c4cc(=O)n(-c5ncccc5F)cc34)cc2)CC1 [Example 8, 5-(3-Fluoropyridin-2-yl)-3-[4-(4-methylpiperazin-1-yl)phenyl]-1,5-dihydro-6H-pyrazolo[4,3-c]pyridin-6-one]
CN1CCN(c2ccc(-c3n[nH]c4cc(=O)n(-c5cccc6c5OCCO6)cc34)cc2)CC1 [Example 7, 5-(2,3-Dihydrobenzo[b][1,4]dioxin-5-yl)-3-[4-(4-methylpiperazin-1-yl)phenyl]-1,5-dihydro-6H-pyrazolo[4,3-c]pyridin-6-one]

Ki, 100 to 500 nM:
CN1CCN(c2ccc(-c3n[nH]c4cc(=O)n(CC5CCCCC5)cc34)cc2)CC1 [Example 12, 5-(Cyclohexylmethyl)-3-[4-(4-methylpiperazin-1-yl)phenyl]-1,5-dihydro-6H-pyrazolo[4,3-c]pyridin-6-one]
CN1CCN(c2ccc(-c3n[nH]c4cc(=O)n(-c5ccccc5)cc34)cc2)CC1 [Example 1, 3-[4-(4-Methylpiperazin-1-yl)phenyl]-5-phenyl-1,5-dihydro-6H-pyrazolo[4,3-c]pyridin-6-one]
CC1OCCCC1n1cc2c(-c3ccc(N4CCN(C)CC4)cc3)n[nH]c2cc1=O (stereo not shown) [Example 16, 3-[4-(4-Methylpiperazin-1-yl)phenyl]-5-(2-methyltetrahydro-2H-pyran-3-yl)-1,5-dihydro-6H-pyrazolo[4,3-c]pyridin-6-one]
CN1CCN(c2ccc(-c3n[nH]c4cc(=O)n(C5CCCCC5)cc34)cc2)CC1 [Example 9, 5-Cyclohexyl-3-[4-(4-methylpiperazin-1-yl)phenyl]-1,5-dihydro-6H-pyrazolo[4,3-c]pyridin-6-one]
CN1CCN(c2ccc(-c3n[nH]c4cc(=O)n(Cc5ccccc5)cc34)cc2)CC1 [Example 11, 5-Benzyl-3-[4-(4-methylpiperazin-1-yl)phenyl]-1,5-dihydro-6H-pyrazolo[4,3-c]pyridin-6-one]

Ki, 500 to 3000 nM:
CN1CCN(c2ccc(-c3n[nH]c4cc(=O)n(C5CCOC5)cc34)cc2)CC1 (stereo not shown) [Example 10, 3-[4-(4-Methylpiperazin-1-yl)phenyl]-5-(tetrahydrofuran-3-yl)-1,5-dihydro-6H-pyrazolo[4,3-c]pyridin-6-one]
CN1CCN(c2ccc(-c3n[nH]c4cc(=O)n(C5CCN(C)C5=O)cc34)cc2)CC1 (stereo not shown) [Example 15, 5-(1-Methyl-2-oxopyrrolidin-3-yl)-3-[4-(4-methylpiperazin-1-yl)phenyl]-1,5-dihydro-6H-pyrazolo[4,3-c]pyridin-6-one]
